Data reported in patent US8309550B2, “Kinase inhibitors and their use as pharmaceutical agents” (Shanghai Genomics, Inc., priority 2011, dated 2012).

Legend:
Format in all cases: biochemical
Aurora A = target: T1, Aurora A (Homo sapiens, UniProt O14965); test: Z'-LYTE kinase assay Aurora A; conditions: read-out: Kinase inhibition, IC50 Aurora A
T1 construct: purchased Invitrogen PV3612
T1 sequence (O14965 1-403): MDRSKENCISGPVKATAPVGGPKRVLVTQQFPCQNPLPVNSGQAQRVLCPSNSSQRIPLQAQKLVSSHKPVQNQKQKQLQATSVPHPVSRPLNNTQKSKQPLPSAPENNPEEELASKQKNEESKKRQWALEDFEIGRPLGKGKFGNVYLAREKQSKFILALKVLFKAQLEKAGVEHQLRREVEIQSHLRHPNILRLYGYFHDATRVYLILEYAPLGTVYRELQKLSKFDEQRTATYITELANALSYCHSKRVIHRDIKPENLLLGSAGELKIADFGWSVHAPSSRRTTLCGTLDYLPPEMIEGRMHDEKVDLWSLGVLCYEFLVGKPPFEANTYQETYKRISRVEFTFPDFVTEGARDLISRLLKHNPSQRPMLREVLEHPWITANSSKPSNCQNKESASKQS
Protocol: (§1) Kinase assays. The compounds from the example above were tested for their ability to inhibit kinases. Recombinant human CDK2/cyclinA (PV3267), CDK1/cyclinB (PV3292), CDK5/p35 (PV3000) and Aurora A (PV3612) were purchased from Invitrogen (Carlsbad, Calif., USA). Kinase dosage and Z′-LYTE™ substrate for each kinase assay is as follows: CDK2/cyclinA-8 ng/reaction, Ser/Thr 12 Peptide; CDK1/cyclinB-0.8 ng/reaction, Ser/Thr 12 Peptide, CDK5/p35-0.8 ng/reaction, Ser/Thr 12 Peptide, and Aurora A-16 ng/reaction, Ser/Thr 1 Peptide. All enzymatic assays were performed using Z′-LYTE™ Kinase Assay Kits and were carried out following protocols provided by Invitrogen. To prepare stock solutions, compounds were dissolved at 10 mM in 100% DMSO and stored at 4° C. in amber glass vials. Enzyme reactions were initiated by adding recombinant enzyme and Z′-LYTE™ Ser/Thr peptide substrate and ATP mixture to 384-well plates containing diluted test compounds. Kinase and corresponding peptide substrate were incubated for 1 hr at room temperature in the presence of varying amounts of test compound with reaction buffer (20 μM ATP, […] [pH 7.5], 5 mM MgCl2, 0.5 mM EGTA, 0.005% Brij-35). Development buffer was added and incubated for another one hour at room temperature. Reactions were terminated by addition of stop buffer, and fluorescence emission intensity ratio 445 nm/520 nm (excited at 400 nm) was quantified by VICTOR-3 Multilabel Reader (Perkin-Elmer, Waltham, Mass., USA). Phosphorylation was calculated from the emission ratio. IC50 was determined using Sigmoid curve-fitting software Origin 6.0 (MicroCal, LLC, Northampton, Mass., USA).

CDK2/cyclinA = target: T2, CDK2/cyclinA (Homo sapiens, UniProt P24941); test: Z'-LYTE kinase assay CDK2/cyclinA; conditions: read-out: Kinase inhibition, IC50 CDK2A
T2 construct: purchased Invitrogen PV3267
Protocol: as §1

Aurora B = Aurora B (Homo sapiens, UniProt Q96GD4); test: Kinase assay Aurora B (Table I); conditions: read-out: Kinase inhibition, IC50 Aurora B
Protocol: [The source words this procedure for another target and reports this target under the same test.] as §1

CDK1/cyclinB = target: T3, CDK1/cyclinB (Homo sapiens, UniProt P06493); test: Z'-LYTE kinase assay CDK1/cyclinB; conditions: read-out: Kinase inhibition, IC50 CDK1B
T3 construct: purchased Invitrogen PV3292
Protocol: as §1

CDK9T1 = CDK9T1 (Homo sapiens, UniProt P50750); test: Kinase assay CDK9T1 (Table I); conditions: read-out: Kinase inhibition, IC50 CDK9T1
Protocol: [The source words this procedure for another target and reports this target under the same test.] as §1

CDK5/p35 = target: T4, CDK5/p35 (Homo sapiens, UniProt Q00535); test: Z'-LYTE kinase assay CDK5/p35; conditions: read-out: Kinase inhibition, IC50 CDK5/p35
T4 construct: purchased Invitrogen PV3000
Protocol: as §1

T3 sequence (P06493 whole entry): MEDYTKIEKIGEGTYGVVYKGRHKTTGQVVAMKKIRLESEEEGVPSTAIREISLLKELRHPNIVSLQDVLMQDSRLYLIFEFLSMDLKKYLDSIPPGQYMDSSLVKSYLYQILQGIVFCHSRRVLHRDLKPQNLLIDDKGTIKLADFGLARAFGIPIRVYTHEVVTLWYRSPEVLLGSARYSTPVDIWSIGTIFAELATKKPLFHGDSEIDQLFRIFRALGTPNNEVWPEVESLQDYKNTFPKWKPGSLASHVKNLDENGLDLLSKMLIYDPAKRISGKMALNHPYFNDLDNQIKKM
T3 sequence (P14635 whole entry partner): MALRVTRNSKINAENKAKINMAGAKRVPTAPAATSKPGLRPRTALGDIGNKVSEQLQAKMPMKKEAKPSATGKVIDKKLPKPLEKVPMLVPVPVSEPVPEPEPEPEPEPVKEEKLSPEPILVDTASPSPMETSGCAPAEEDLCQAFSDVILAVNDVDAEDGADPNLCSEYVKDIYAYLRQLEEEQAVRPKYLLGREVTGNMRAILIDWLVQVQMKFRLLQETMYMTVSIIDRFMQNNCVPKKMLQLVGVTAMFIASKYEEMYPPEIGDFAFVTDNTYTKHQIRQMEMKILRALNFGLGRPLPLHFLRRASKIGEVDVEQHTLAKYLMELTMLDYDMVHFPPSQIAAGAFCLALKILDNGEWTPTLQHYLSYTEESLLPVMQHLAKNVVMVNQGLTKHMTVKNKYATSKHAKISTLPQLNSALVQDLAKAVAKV
Chain of Aurora B (Q96GD4 whole entry): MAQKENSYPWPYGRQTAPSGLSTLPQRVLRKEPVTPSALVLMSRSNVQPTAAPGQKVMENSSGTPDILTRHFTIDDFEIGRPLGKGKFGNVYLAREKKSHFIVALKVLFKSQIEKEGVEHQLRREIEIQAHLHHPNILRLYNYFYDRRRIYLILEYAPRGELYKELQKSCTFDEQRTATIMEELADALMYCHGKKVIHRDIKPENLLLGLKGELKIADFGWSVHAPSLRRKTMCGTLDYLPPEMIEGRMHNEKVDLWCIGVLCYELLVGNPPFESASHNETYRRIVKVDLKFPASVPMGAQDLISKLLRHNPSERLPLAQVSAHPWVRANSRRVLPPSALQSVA
Chain of CDK9T1 (P50750 whole entry): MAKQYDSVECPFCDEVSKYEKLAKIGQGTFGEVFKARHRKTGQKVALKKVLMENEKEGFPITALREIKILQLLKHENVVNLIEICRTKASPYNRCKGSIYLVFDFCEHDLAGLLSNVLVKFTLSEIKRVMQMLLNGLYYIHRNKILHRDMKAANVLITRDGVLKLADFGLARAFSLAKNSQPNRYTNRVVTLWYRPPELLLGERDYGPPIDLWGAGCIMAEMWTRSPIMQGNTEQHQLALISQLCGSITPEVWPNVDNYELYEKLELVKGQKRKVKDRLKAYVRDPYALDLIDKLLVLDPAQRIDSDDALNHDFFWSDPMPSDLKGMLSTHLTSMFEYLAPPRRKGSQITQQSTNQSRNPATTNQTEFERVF
Chain of CDK9T1 (O60563 whole entry partner): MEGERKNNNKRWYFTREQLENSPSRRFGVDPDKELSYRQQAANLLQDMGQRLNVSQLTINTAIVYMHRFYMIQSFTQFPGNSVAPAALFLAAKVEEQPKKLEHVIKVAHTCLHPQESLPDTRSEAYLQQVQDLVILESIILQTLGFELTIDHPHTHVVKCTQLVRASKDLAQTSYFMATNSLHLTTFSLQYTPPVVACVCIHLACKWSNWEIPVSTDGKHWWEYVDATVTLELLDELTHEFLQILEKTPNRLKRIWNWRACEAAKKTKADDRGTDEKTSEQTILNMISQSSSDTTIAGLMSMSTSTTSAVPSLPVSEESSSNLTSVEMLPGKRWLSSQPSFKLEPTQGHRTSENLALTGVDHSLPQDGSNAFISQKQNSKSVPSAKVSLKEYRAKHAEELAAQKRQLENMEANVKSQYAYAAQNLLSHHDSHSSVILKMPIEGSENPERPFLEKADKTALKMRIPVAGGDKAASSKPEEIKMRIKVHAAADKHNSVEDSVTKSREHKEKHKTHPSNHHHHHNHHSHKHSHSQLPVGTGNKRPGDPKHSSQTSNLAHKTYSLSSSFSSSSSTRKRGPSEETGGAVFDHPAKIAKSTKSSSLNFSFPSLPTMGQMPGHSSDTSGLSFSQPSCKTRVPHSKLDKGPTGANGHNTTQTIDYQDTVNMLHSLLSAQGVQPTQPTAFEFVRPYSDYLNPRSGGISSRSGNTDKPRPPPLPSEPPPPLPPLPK
T4 sequence (Q00535 whole entry): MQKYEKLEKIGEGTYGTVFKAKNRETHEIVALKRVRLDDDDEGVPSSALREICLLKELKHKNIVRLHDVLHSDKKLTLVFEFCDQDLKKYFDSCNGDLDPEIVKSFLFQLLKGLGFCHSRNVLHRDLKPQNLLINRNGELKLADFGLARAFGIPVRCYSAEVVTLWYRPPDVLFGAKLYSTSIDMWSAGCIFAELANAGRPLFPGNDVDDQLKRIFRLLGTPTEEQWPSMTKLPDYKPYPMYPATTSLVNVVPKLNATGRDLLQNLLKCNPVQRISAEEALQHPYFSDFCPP
T4 sequence (Q15078 whole entry partner): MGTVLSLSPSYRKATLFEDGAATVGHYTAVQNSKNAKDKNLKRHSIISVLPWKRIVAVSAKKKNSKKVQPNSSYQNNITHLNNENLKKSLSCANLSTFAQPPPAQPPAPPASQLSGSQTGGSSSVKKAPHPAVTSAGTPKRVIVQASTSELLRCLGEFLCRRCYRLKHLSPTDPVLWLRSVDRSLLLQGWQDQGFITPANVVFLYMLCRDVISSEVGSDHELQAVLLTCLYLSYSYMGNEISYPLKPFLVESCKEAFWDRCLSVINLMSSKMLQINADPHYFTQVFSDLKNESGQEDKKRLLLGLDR

SMILES	IC50 (Aurora A)	IC50 (CDK2/cyclinA)	IC50 (Aurora B)	IC50 (CDK1/cyclinB)	IC50 (CDK9T1)	IC50 (CDK5/p35)
CCCn1cc(-c2ccnc(Nc3ccc(S(N)(=O)=O)cc3)n2)c2cccnc21 [Compound 23, 4-(4-(1-Propyl-1H-pyrrolo[2,3-b]pyridin-3-yl)pyrimidin-2-ylamino)benzenesulfonamide]	4900 nM	10 nM	5800 nM	30 nM	52 nM	100 nM
CCn1cc(-c2ccnc(Nc3cccc(O)c3)n2)c2ccccc21 [Compound 7, 3-[4-(1-Ethyl-1H-indol-3-yl)-pyrimidin-2-ylamino]-phenol]	5840 nM	2 nM	1010 nM	1340 nM	29 nM	375 nM
CCn1cc(-c2ccnc(Nc3cccc([N+](=O)[O-])c3)n2)c2cccnc21 [Compound 14, 4-(1-Ethyl-1H-pyrrolo[2,3-b]pyridin-3-yl)-N-(3-nitrophenyl)pyrimidin-2-amine]	1340 nM	1070 nM	> 10000 nM	> 10000 nM	790 nM	> 10000 nM
Oc1ccc(Nc2nccc(-c3cn(Cc4ccccc4)c4ccccc34)n2)cc1 [Compound 10, 4-[4-(1-Benzyl-1H-indol-3-yl)-pyrimidin-2-ylamino]-phenol]	4220 nM	1170 nM	–	2360 nM	670 nM	4370 nM
CCCn1cc(-c2ccnc(Nc3cccc(C(=O)N4CCN(C)CC4)c3)n2)c2cccnc21 [Compound 34, (4-Methylpiperazin-1-yl)(3-(4-(1-propyl-1H-pyrrolo[2,3-b]pyridin-3-yl)pyrimidin-2-ylamino)phenyl)methanone]	> 10000 nM	1340 nM	> 10000 nM	1570 nM	350 nM	620 nM
CCn1cc(-c2ccnc(Nc3cccc(O)c3)n2)c2ccnc(Cl)c21 [Compound 72, 3-(4-(7-Chloro-1-ethyl-1H-pyrrolo[2,3-c]pyridin-3-yl)pyrimidin-2-ylamino)phenol]	800 nM	4.3 nM	930 nM	90 nM	79 nM	100 nM
CCn1cc(-c2ccnc(Nc3ccc(O)cc3)n2)c2cccnc21 [Compound 12, 4-(4-(1-Ethyl-1H-pyrrolo[2,3-b]pyridin-3-yl)pyrimidin-2-ylamino)phenol]	270 nM	172 nM	750 nM	4110 nM	> 10000 nM	5540 nM
Cn1cc(-c2ccnc(Nc3ccc(O)cc3Cl)n2)c2ccccc21 [Compound 3, 3-Chloro-4-(4-(1-methyl-1H-indol-3-yl)pyrimidin-2-ylamino)phenol]	> 10000 nM	7530 nM	> 10000 nM	> 10000 nM	> 10000 nM	> 10000 nM
CCn1cc(-c2ccnc(Nc3ccc(O)cc3C)n2)c2ccccc21 [Compound 8, 4-[4-(1-Ethyl-1H-indol-3-yl)-pyrimidin-2-ylamino]-3-methyl-phenol]	> 10000 nM	411 nM	> 10000 nM	8950 nM	> 10000 nM	> 10000 nM
Oc1cccc(Nc2nccc(-c3cn(Cc4ccccc4)c4ccccc34)n2)c1 [Compound 11, 3-[4-(1-Benzyl-1H-indol-3-yl)-pyrimidin-2-ylamino]-phenol]	4670 nM	4050 nM	> 10000 nM	4820 nM	1170 nM	> 10000 nM
Cc1cc(O)ccc1Nc1nccc(-c2cn(C)c3ccccc23)n1 [Compound 4, 3-Methyl-4-[4-(1-methyl-1H-indol-3-yl)-pyrimidin-2-ylamino]-phenol]	> 10000 nM	1770 nM	> 10000 nM	> 10000 nM	–	> 10000 nM
CCn1cc(-c2ccnc(Nc3ccc(O)cc3)n2)c2ccccc21 [Compound 6, 4-[4-(1-Ethyl-1H-indol-3-yl)-pyrimidin-2-ylamino]-phenol]	1050 nM	3 nM	470 nM	1210 nM	26 nM	522 nM
CCn1cc(-c2ccnc(Nc3cccc(O)c3)n2)c2cccnc21 [Compound 13, 3-(4-(1-Ethyl-1H-pyrrolo[2,3-b]pyridin-3-yl)pyrimidin-2-ylamino)phenol]	710 nM	61 nM	2050 nM	1180 nM	450 nM	1960 nM
CCn1cc(-c2ccnc(Nc3ccc(O)cc3)n2)c2ccnc(Cl)c21 [Compound 70, 4-(4-(7-Chloro-1-ethyl-1H-pyrrolo[2,3-c]pyridin-3-yl)pyrimidin-2-ylamino)phenol]	2460 nM	16 nM	> 10000 nM	190 nM	95 nM	350 nM
Cc1cc(O)cc(C)c1Nc1nccc(-c2cn(C)c3ccccc23)n1 [Compound 5, 3,5-Dimethyl-4-[4-(1-methyl-1H-indol-3-yl)-pyrimidin-2-ylamino]-phenol]	> 10000 nM	≥ 100000 nM	> 10000 nM	> 10000 nM	–	> 10000 nM
CCn1cc(-c2ccnc(Nc3c(C)cc(O)cc3C)n2)c2ccccc21 [Compound 9, 4-[4-(1-Ethyl-1H-indol-3-yl)-pyrimidin-2-ylamino]-3,5-dimethyl-phenol]	> 10000 nM	> 100000 nM	> 10000 nM	> 10000 nM	> 10000 nM	> 10000 nM
